Reference: patent US10221168B1, “Small-compound enhancers for functional O-mannosylation of alpha-dystroglycan, and uses thereof” (priority 2015, dated 2019)

Tested on: FOG of α-DG on the cell surfaces
Assay: Cell-based HTS/HCS assay, IIH6 antibody as probe (EC1.5)
Details: concentration of the compound required to enhance the FOG of α-DG by 50% over the controls; cell-based assays in vitro
Source text: Protein glycosylation is a multiple-step process that requires a large number of proteins in the secretory pathway of the cells. Thus we chose cell-based assay because our goal is to identify enhancer the FOG of α-DG on the cell surfaces. The assay system is HTS/HCS friendly and can adapt to various cell lines including myotubes as well as various readout methods including AlphaScreen, fluorescence density and HCS/fluorescence imaging. The standard operation protocol (SOP) for adhesion cells is described below and the FIG. 1 illustrates the assay process using myoblasts as the controls and screening cells and the IIH6 antibody as the probe. Other adhesion cells such CHO (Chinese hamster ovary) cell line can be implemented into this assay by simply removing the differentiation step.
Cell cultures: All cells are cultured at 37° C., 5% CO2, in appropriate media (F-12 for epithelial cells and DMEM for myoblasts) supplement with 10-20% fetal calf serum (FCS) and 1% antibiotics. […] The cells will be detached with trypsin EDTA and suspended in the cell culture media. The cells will be counted and seeded into the multiple-well plates as desired. Myotubes formation: When the myoblasts reach confluence, change the growth media to differential media (DEME with 2% horse serum) and incubate for 4-5 days.
The cells were fixed, permeablized, and then blocked with 10% BSA in PBS for 1 hour. […] After washing the cells with PBS for 2 times, the DAPI was used to stain the cells for 15 mins and wash 3 times with PBS. The images were captured with an inverted Olympus fluorescent microscope. For small compound localization experiment, the cells are incubated with the biotin conjugated compounds and then the cells were washed and incubated with streptavidin-Dye and then images will be captured to see the location of the compound-target-protein.
H, EC1.5<5 μM; M, EC1.5-20 μM; L, EC1.5 20-50 μM; VL, EC1.5>50 μM.

Row | Structure (SMILES) | Activity (EC1.5)
1 | CCC(c1nnnn1CCc1cccs1)N1CCN(c2nc3cc(N)cc(F)c3s2)CC1[N+](=O)[O-] (centres unmarked) [Compound 65, 5-amino-7-fluoro-2-(4-(1-(1-(thiophen-2-ylethyl)-1H-tetrazol-5-yl)propyl)-5-nitro-piperazin-1-yl)benzothiazole] | H (EC1.5<5 μM)
2 | CCC(c1nnnn1Cc1cccs1)N1CCN(c2nc3c(F)cc(N)c(F)c3s2)CC1 (centres unmarked) [Compound 51, 6-amino-4,7-difluoro-2-(4-(1-(1-(thiophen-2-ylmethyl)-1H-tetrazol-5-yl)propyl)piperazin-1-yl)benzothiazole] | H (EC1.5<5 μM)
3 | CCC(c1nnnn1Cc1cccs1)N1CCN(c2nc3c(F)cc(F)cc3s2)CC1 (centres unmarked) [Compound 44, 4,6-difluoro-2-(4-(1-(1-(thiophen-2-ylmethyl)-1H-tetrazol-5-yl)propyl)piperazin-1-yl)benzothiazole] | M (EC1.5-20 μM)
4 | CCC(c1nnnn1Cc1cccs1)N1CCN(c2nc3cccc(F)c3s2)CC1 (centres unmarked) [Compound 21, 7-fluoro-2-(4-(1-(1-(thiophen-2-ylmethyl)-1H-tetrazol-5-yl)propyl)piperazin-1-yl)benzothiazole] | H (EC1.5<5 μM)
5 | CCC(c1nnnn1Cc1cccs1)N1CCN(c2nc3c(F)c(N)cc(F)c3s2)CC1 (centres unmarked) [Compound 48, 5-amino-4,7-difluoro-2-(4-(1-(1-(thiophen-2-ylmethyl)-1H-tetrazol-5-yl)propyl)piperazin-1-yl)benzothiazole] | H (EC1.5<5 μM)
6 | CCC(c1nnnn1Cc1cccs1)N1CCN(c2nc3cc(OC)c(OC)c(OC)c3s2)CC1 (centres unmarked) [Compound 20, 5.6.7-trimethaxy-2-(4-(1-(1-(thiophen-2-ylmethyl)-1H-tetrarol-5-yl)propyl)piperazin-1-yl)benzothiazole] | M (EC1.5-20 μM)
7 | CCC(c1nnnn1Cc1cccs1)N1CCN(c2nc3ccc(C)cc3s2)CC1 (centres unmarked) [Compound 16, 6-methyl-2-(4-(1-(1-(thiophen-2-ylmethyl)-1H-tetrazol-5-yl)propyl)piperazin-1-yl)benzothiazole] | L (EC1.5 20-50 μM)
8 | CCC(c1nnnn1Cc1cccs1)C1CCCN(c2nc3cc(N)cc(F)c3s2)CC1 (centres unmarked) [Compound 70, 5 amino-7-fluoro-2-(4-(1-(1-(thiophen-2-ylmethyl)-1H-tetrazol-5-yl)propyl)azepane-1-yl)benzothiazole] | H (EC1.5<5 μM)
9 | CCC(c1nnnn1Cc1cccs1)N1CCN(c2nc3cc(F)ccc3s2)CC1 (centres unmarked) [Compound 25, 5-fluoro-2-(4-(1-(1-(thiophen-2-ylmethyl)-1H-tetrazol-5-yl)propyl)piperazin-1-yl)benzothiazole] | L (EC1.5 20-50 μM)
10 | CCC(c1nnnn1Cc1cncs1)N1CCN(c2nc3cccc(F)c3s2)CC1 (centres unmarked) [Compound 42, 7-fluoro-2-(4-(1-(1-(thiazol-5-ylmethyl)-1H-tetrazol-5-yl)propyl)piperazin-1-yl)benzothiazole] | L (EC1.5 20-50 μM)
11 | CCC(c1nnnn1Cc1cccs1)N1CCN(c2nc3cc([N+](=O)[O-])cc(F)c3s2)CC1 (centres unmarked) [Compound 45, 7-fluoro-5-nitro-2-(4-(1-(1-(thiophen-2-ylmethyl)-1H-tetrazol-5-yl)propyl)piperazin-1-yl)benzothiazole] | L (EC1.5 20-50 μM)
12 | CCC(c1nnnn1Cc1cccs1)N1CCCN(c2nc3cc(N)cc(F)c3s2)CCC1 (centres unmarked) [Compound 72, 5-amino-7-fluoro-2-(5-(1-(1-(thiophen-2-ylmethyl)-1H-tetrazol-5-yl)propyl)1,5-diazocane-1-yl)benzothiazole] | H (EC1.5<5 μM)
13 | CCC(c1nnnn1CCc1cccs1)N1CCCN(c2nc3cc(N)cc(F)c3s2)CC1 (centres unmarked) [Compound 75, 5-amino-7-fluoro-2-(4-(1-(1-(thiophen-2-ylethyl)-1H-tetrazol-5-yl)propyl)1,4-diazepane-1-yl)benzothiazole] | H (EC1.5<5 μM)
14 | CCC(c1nnnn1Cc1cccs1)N1CCN(c2nc3cccc(O)c3s2)CC1 (centres unmarked) [Compound 37, 7-hydroxyl-2-(4-(1-(1-(thiophen-2-ylmethyl)-1H-tetrazol-5-yl)propyl)piperazin-1-yl)benzothiazole] | L (EC1.5 20-50 μM)
15 | CCC(c1nnnn1CCc1ccns1)N1CCN(c2nc3cc(N)cc(F)c3s2)CC1 (centres unmarked) [Compound 74, 5-amino-7-fluoro-2-(4-(1-(1-(isothiazol-5-ylethyl)-1H-tetrazol-5-yl)propyl)piperazin-1-yl)benzothiazole] | H (EC1.5<5 μM)
16 | CCC(c1nnnn1Cc1cccs1)N1CCN(c2nc3ccccc3[nH]2)CC1 (centres unmarked) [Compound 9, 2-(4-(1-(1-(thiophen-2-ylmethyl)-1H-tetrazol-5-yl)propyl)piperazin-1-yl)-1H-benzimidazole] | L (EC1.5 20-50 μM)

Row | Structure (SMILES) | Activity (EC1.5)
17 | CCC(c1nnnn1Cc1cccs1)N1CCN(c2nc3ccc(-c4ccccc4)cc3s2)CC1 (centres unmarked) [Compound 17, 6-phenyl-2-(4-(1-(1-(thiophen-2-ylmethyl)-1H-tetrazol-5-yl)propyl)piperazin-1-yl)benzothiazole] | VL (EC1.5>50 μM)
18 | CCC(c1nnnn1Cc1cccs1)N1CCN(c2nc3cccc(C(=O)O)c3s2)CC1 (centres unmarked) [Compound 36, 2-(4-(1-(1-(thiophen-2-ylmethyl)-1H-tetrazol-5-yl)propyl)piperazin-1-yl)benzothiazole-7-carboxylic acid] | L (EC1.5 20-50 μM)
19 | CCC(c1nnnn1CCc1cccs1)N1CCN(c2nc3cc(N)cc(F)c3s2)C(N)C1 (centres unmarked) [Compound 66, 5-amino-7-fluoro-2-(4-(1-(1-(thiophen-2-ylethyl)-1H-tetrazol-5-yl)propyl)-2-amino-piperazin-1-yl)benzothiazole] | H (EC1.5<5 μM)
20 | CCC(C(=O)NCc1cccs1)c1ccc(-c2nc3ccccc3s2)cc1 (centres unmarked) [Compound 38, 2-(4-(benzothiazol-2yl)phenyl)-N-(thiophen-2-ylmethyl)butanamide] | M (EC1.5-20 μM)
21 | CCC(c1nnnn1Cc1cccs1)N1CCN(c2nc3ccccc3s2)CC1 (centres unmarked) [Compound 6, 2-(4-(1-(1-(thiophen-2-ylmethyl)-1H-tetrazol-5-yl)propyl)piperazin-1-yl)benzothiazole] | M (EC1.5-20 μM)
22 | CCC(c1nnnn1Cc1ccns1)N1CCN(c2nc3cc(N)cc(F)c3s2)CC1 (centres unmarked) [Compound 73, 5-amino-7-fluoro-2-(4-(1-(1-(isothiazol-5-ylmethyl)-1H-tetrazol-5-yl)propyl)piperazin-1-yl)benzothiazole] | H (EC1.5<5 μM)
23 | CCC(c1nnnn1Cc1cccs1)N1CCN(Cc2nc3ccccc3s2)CC1 (centres unmarked) [Compound 43, 2-((4-(1-(1-(thiophen-2-ylmethyl)-1H-tetrazol-5-yl)propyl)piperazin-1-yl)methyl)benzothiazole] | L (EC1.5 20-50 μM)
24 | O=C(c1nnnn1Cc1cccs1)N1CCN(c2nc3cccc(F)c3s2)CC1 [Compound 33, (4-(7-fluorobenzothiazol-2-yl)piperazin-1-yl)(1-(thiophen-2-ylmethyl)-1H-tetrazol-5-yl)methanone] | L (EC1.5 20-50 μM)
25 | CCC(c1nnnn1CCc1cccs1)N1CCN(c2nc3cc(N)c(N)cc3s2)CC1 (centres unmarked) [Compound 53, 5,6-diamino-2-(4-(1-(1-(thiophen-2-ylethyl)-1H-tetrazol-5-yl)propyl)piperazin-1-yl)benzothiazole] | H (EC1.5<5 μM)
26 | CCC(c1nnnn1CCc1cccs1)N1CCCN(c2nc3cc(N)cc(F)c3s2)CC1 (centres unmarked) [Compound 76, 5-amino-7-fluoro-2-(4-(1-(1-(thiophen-2-ylethyl)-1H-tetrazol-5-yl)propyl)1,4-diazepane-1-yl)benzothiazole] | H (EC1.5<5 μM)
27 | CCC(c1ccc(-c2nc3ccccc3s2)cc1)c1nnnn1Cc1cccs1 (centres unmarked) [Compound 40, 2-(4-(1-(1-(thiophen-2-ylmethyl)-1H-tetrazol-5-yl)propyl)phenyl)benzothiazole] | M (EC1.5-20 μM)
28 | CCC(C(=S)NCc1cccs1)c1ccc(-c2nc3ccccc3s2)cc1 (centres unmarked) [Compound 39, 2-(4-(benzothiazol-2-yl)phenyl)-N-(thiophen-2-ylmethyl)butanethioamide] | M (EC1.5-20 μM)
29 | CCC(c1nnnn1Cc1ccco1)N1CCN(c2nc3ccccc3s2)CC1 (centres unmarked) [Compound 5, 2-(4-(1-(1-(furan-2-ylmethyl)-1H-tetrazol-5-yl)propyl)piperazin-1-yl)benzothiazole] | M (EC1.5-20 μM)
30 | CCC(c1nnnn1Cc1cccs1)N1CCC(c2nc3ccccc3s2)CC1 (centres unmarked) [Compound 8, 2-(1-(1-(1-(thiophen-2-ylmethyl)-1H-tetrazol-5-yl)propyl)piperidin-4-yl)benzothiazole] | M (EC1.5-20 μM)
31 | CCC(c1nnnn1Cc1cccs1)C1CCN(c2nc3cc(N)cc(F)c3s2)C1 (centres unmarked) [Compound 69, 5-amino-7-fluoro-2-(4-(1-(1-(thiophen-2-ylmethyl)-1H-tetrazol-5-yl)propyl)pyrrolidine-1-yl)benzothiazole] | H (EC1.5<5 μM)
32 | CCC(c1nnnn1Cc1ccc(C)s1)N1CCN(c2nc3cc(N)cc(F)c3s2)CC1 (centres unmarked) [Compound 56, 5-amino-7-fluoro-2-(4-(1-(1-(5-methyl-thiophen-2-ylmethyl)-1H-tetrazol-5-yl)propyl)piperazin-1-yl)benzothiazole] | H (EC1.5<5 μM)
